From patent US20060040861A1, “Method of treating, preventing, and diagnosing prostate cancer” (priority 2004, published 2006)

B1: f-adiponectin: Recombinant human full-length (non-proteolytic) adiponectin, about 30-kDa polypeptide; lot mainly HMW form (protein, UniProt Q15848 1-244, looked up)
chain: MLLLGAVLLLLALPGHDQETTTQGPGVLLPLPKGACTGWMAGIPGHPGHNGAPGRDGRDGTPGEKGEKGDPGLIGPKGDIGETGVPGAEGPRGFPGIQGRKGEPGEGAYVYRSAFSVGLETYVTIPNMPIRFTKIFYNQQNHYDGSTGKFHCNIPGLYYFAYHITVYMKDVKVSLFKKDKAMLFTYDQYQENNVDQASGSVLLHLEVGDQVWLQVYGEGERNGLYADNDNDSTFTGFLLYHDTN
modifications: full-length
notes: Recombinant human full-length (non-proteolytic) adiponectin, about 30-kDa polypeptide; lot mainly HMW form

What was measured:
PC-3 cells = assay: [3H] thymidine incorporation assay; format: cell-based, human
Method: (§1) DU145 (1.5×10^5/well), PC-3 (1.0×10^5/well) and LNCaP-FGC (2.0×10^5/well) cells were seeded into 24-well plates 24 hours before serum-starvation. Cells were deprived of serum for 48 hours, followed by incubation with leptin at indicated concentrations or 100 ng/ml IL-6 for 20 hours. In some experiments, cells were pretreated with SP600125 prior to cytokine stimulation as described below. Cells in each well were pulsed with 1 μCi of [^3H] thymidine (Amersham Pharmacia Biotech Inc., Piscataway, N.J., USA) during the final 5 hours, washed once with PBS, fixed with cold 5% trichloroacetic acid, solubilized with 0.25 M NaOH, and counted in scintillant. Each experiment was performed in quadruplicate, and the values are reported as mean±SD.
(§2) SP600125 was dissolved in DMSO to make a stock solution. Eighty-percent confluent prostate cancer cells were serum-starved for 24 hours and pretreated with SP600125 at indicated concentrations for 30 minutes, followed by leptin treatment (12.5 μg/ml): 15 minutes for Western blot analysis or 20 hours for thymidine incorporation assays. DMSO-treated cells were employed as controls.

DU145 cells = assay: [3H] thymidine incorporation assay; format: cell-based, human
Method: as §1, §2

JNK = assay: In vitro JNK assay on lysates of treated C2C12 myoblasts; format: cell-based, murine; settings: 1.0 μg/ml
Method: Seventy-percent confluent cells were deprived of serum for 24 hours, followed by treatment with 1 μg/ml f- or g-adiponectin or 10 μg/ml anisomycin for indicated periods. After being rinsed with cold phosphate-buffered saline, cells were harvested using a scraper and collected by centrifugation at 700×g for 10 minutes at 4° C. The cell pellets were then homogenized in cell lysis buffer (20 mM HEPES, pH 7.9, 300 mM NaCl, 1 mM Na3VO4, 1 μg/ml leupeptin, 5 μg/ml aprotinin, 1 μg/ml pepstatin, and 1 mM phenylmethylsulfonyl fluoride) and rocked gently for 30 minutes at 4° C. The homogenates were centrifuged at 15,000×g for 5 minutes at 4° C., and the supernatants were saved as cell lysates and stored at −80° C. until use.
Using the stress-activated protein kinase/JNK assay kit, JNK activity was assessed with a fusion protein of the c-Jun NH2 terminus (amino acids 1 to 89) and glutathione S-transferase as a substrate according to the manufacture's instructions with some modifications as reported before (M. Onuma, et al., supra, 2003). […] The substrate fusion protein was separated by SDS-polyacrylamide gel electrophoresis, and its phosphorylation by JNK was determined by Western blot analysis using anti-phospho-c-Jun (Ser-63) polyclonal antibody. To normalize sample variations, JNK protein levels were also determined by Western blot analysis using anti-JNK antibody.

| Molecule | [3H] thymidine incorporation (cell proliferation), cytokine alone (PC-3 cells; PC-3, serum-deprived, leptin up to 12.5 μg/ml, IL-6 100 ng/ml or IGF-I 100 ng/ml, 20 hours) | effect on the IGF-I stimulation of cell proliferation (PC-3 cells; PC-3, 12.5 μg/ml leptin with 100 ng/ml IGF-I, 20 hours) | effect on the IL-6 stimulation of cell proliferation (PC-3 cells; PC-3, 12.5 μg/ml leptin with 100 ng/ml IL-6, 20 hours) | [3H] thymidine incorporation (cell proliferation), cytokine alone (DU145 cells; DU145, serum-deprived, leptin up to 12.5 μg/ml, IL-6 100 ng/ml or IGF-I 100 ng/ml, 20 hours) | effect on the IGF-I stimulation of cell proliferation (DU145 cells; DU145, 12.5 μg/ml leptin with 100 ng/ml IGF-I, 20 hours) | effect on the IL-6 stimulation of cell proliferation (DU145 cells; DU145, 12.5 μg/ml leptin with 100 ng/ml IL-6, 20 hours) | time of peak JNK activation after addition (JNK) [min] | JNK activation (JNK; up to 60 minutes) |
| --- | --- | --- | --- | --- | --- | --- | --- | --- |
| leptin: Recombinant human leptin purchased from R&D Systems; major adipose cytokine | stimulated thymidine incorporation remarkably in a dose-dependent fashion | drastic, synergistic effects | additive effects | stimulated thymidine incorporation remarkably in a dose-dependent fashion | drastic, synergistic effects | additive effects |  |  |
| B1 |  |  |  |  |  |  | 10 | further stimulated JNK activation |
